Laboratory results as given in patent publication US20250205361A1, “TREATMENT […] FOR T[…] […] ACT VIA AN INT[…] TARGET” (priority 2023, published 2025).

Experiments:
[1] = test system: Ttr RNA; experiment: Ttr RNA quantification (qRT-PCR) in murine primary hepatocytes, depot release; type: cell-based, mouse; conditions: 0.05 nM GN3-siTTR 6 hrs loading, wash, saponin component 48 hrs
Method: Wells of a 24- or 96-well plate (Greiner BioOne) were coated overnight at 37° C. with rat collagen-I (Ibidi). Next day the coating solution was removed and the wells were washed 1× with PBS (PAN-Biotech GmbH). Hepatocyte Plating Medium (HPM, […] Cell Culture Technology GmbH) was added using 210 μl or 35 μl per well, per 24-wp or 96-wp respectively. Next, GN3-siTTR/DPBS was dissolved at 10× the final concentration (final concentration is 0.5 nM or 0.05 nM GN3-siTTR, as indicated) and 90 μl or 15 μl was added to each well, per 24-wp or 96-wp respectively. Cryopreserved primary mouse hepatocytes (Cytes Biotechnology) were thawed in Hepatocyte Thawing Medium (HTM, […] Cell Culture Technology GmbH) and collected by centrifugation at 50×g for 10 min. […]
RNA from cells was isolated using TRIzol™ Reagent (Thermo Scientific) according to the manufacturer's instruction. […] Ttr expression levels and levels of specific hepatocyte housekeeping genes were determined using quantitative real-time PCR assays (qRT-PCR) using iTaq™ Universal SYBR® Green Supermix (BioRad) and the Light Cycler 480 II (Roche Diagnostics) with specific DNA primers, listed in Table A2. […]
The timed, saponin-component-inducible release of a nucleic acid from endosomes after prior loading cells with the nucleic acid was also assessed in vitro in murine primary hepatocytes (MPH) in different dosing regimens. […]

[2] = test system: A431 cells; experiment: Cell viability (MTS) of A431 cells with aCD71-SPRN and saponin components; type: cell-based, human; conditions: for potency of aCD71-SPRN versus co-administration / efficacy enhancement of aCD71-SPRN: 5 pM aCD71-SPRN 24 hr loading, wash; for efficacy enhancement of aCD71-SPRN: 24 hrs resting; for relative cell viability, efficacy of aCD71-SPRN: 5 pM aCD71-SPRN + concentration range of saponin component, 48 hr co-administration
Method: Cells were cultured in DMEM (PAN-Biotech GmbH) supplemented with 10% fetal bovine serum (FBS) (PAN-Biotech GmbH) and Pen/Strep (PAN-Biotech GmbH) at 37° C. and 5% CO2. Cells were seeded in a 96-well plate at 5.000-6.000 cells/well in 100 μL/well and incubated overnight at 37° C. […] The medium was removed from the cell culture plate and replaced by 180 μL fresh culture medium, followed by the addition of 20 μL 10× compound-mix/well. PBS treatment served as vehicle control. After 24 hrs treatment, the cells were washed and incubated with medium or medium containing PBS/saponin components for the time indicated in FIG. 6B, 6C, 6D at 37° C. At the end of the experiment at 48 hr after saponin component treatment or PBS treatment the cells were harvested for cell viability analysis. Alternatively, as a positive control, the cells were treated with a co-administration of protein toxin and saponin component (or PBS) mix for 48 hrs without medium change, FIG. 6A.
After treatment cell viability was determined by an MTS-assay, performed according to the manufacturer's instruction (CellTiter 96@AQueous One Solution Cell Proliferation Assay, Promega). Briefly, the MTS solution was diluted 20′ in DMEM without phenol red (PAN-Biotech GmbH) supplemented with 10% FBS. The cells were washed once with 200 μL/PBS well, after which 100 μL diluted MTS solution was added/well. The plate was incubated for approximately 20-30 minutes at 37° C. Subsequently, the OD at 492 nm was measured on a Spectramax iD5 plate reader (Molecular Devices). For quantification the background signal of ‘medium only’ wells was subtracted from all other wells, before the cell viability percentage of treated/untreated cells was calculated, by dividing the background corrected signal of treated wells over the background corrected signal of the untreated wells (×100).
One disadvantage of these types of immunotoxins for clinical use is their relatively narrow therapeutic window and associated potentially life-threatening toxicities at dose levels that are therapeutic. Here, the in vitro efficacy and enhancement of effect durability of an immunotoxin (anti-CD71-saporin, also referred to as aCD71-SPRN, protein toxin) by endosome escape enhancer saponin components was assessed in epidermoid carcinoma cells and metastatic melanoma cells. A concentration range of a saponin component was added either together with a fixed concentration of 5 pM aCD71-SPRN to the cancer cells, or at various time points after the loading of the cancer cells with a fixed concentration of 5 pM aCD71-SPRN (according to dosing schemes in FIG. 6A, 6B, 6C, 6D). As a negative control, cells were loaded with protein toxin according to scheme FIG. 6A-D but received medium with PBS instead of saponin component.

[3] = test system: A431 cells; experiment: Imaging of Cy5 fluorescence release from Cet-Cy5 loaded A431 cells; type: cell-based, human; conditions: A431 loaded with 2 nM Cet-Cy5 48 hrs, wash, 24 hrs resting, saponin component added at 72 hrs
Method: Cells were cultured in DMEM (PAN-Biotech GmbH) supplemented with 10% fetal bovine serum (FBS) (PAN-Biotech GmbH) and Pen/Strep (PAN-Biotech GmbH) at 37° C. and 5% CO2.

[4] = 6 hrs resting, saponin component 48 hrs
[5] = saponin component added directly, 48 hrs

SMILES | remaining Ttr levels [1] | potency of aCD71-SPRN versus co-administration [2, 4] | efficacy enhancement of aCD71-SPRN ([2]; saponin component 48 hrs) | potency of aCD71-SPRN versus co-administration [2, 5] | relative cell viability, efficacy of aCD71-SPRN [2] | Cy5 fluorescence state at end of experiment at 160 hrs [3]
CC(=O)OC1C(C)OC(OC2C(C)OC(OC(=O)[C@]34CCC(C)(C)CC3C3=CCC5[C@@]6(C)CC[C@H](OC7OC(C(=O)O)C(O)C(OC8OCC(O)C(O)C8O)C7OC7OC(CO)C(O)C(O)C7O)[C@@](C)(/C=N/NC(=O)CCCCCN7C(=O)CC(SCCO)C7=O)C6CC[C@@]5(C)[C@]3(C)C[C@H]4O)C(OC3OC(C)C(OC4OCC(O)C(OC5OC(CO)C(O)C(O)C5O)C4O)C(O)C3O)C2O)C(O)C1OC1OCC(O)C(O)C1O (some centres unmarked) [SO1861-AH-Maleimide-Block] | 3% | very comparable to the co-administration | still apparent | comparable high potency | reduces cell viability | 
CC(=O)O[C@H]1[C@H](O[C@@H]2OC[C@@H](O)[C@H](O)[C@H]2O)[C@@H](O)[C@H](O[C@@H]2[C@H](O)[C@@H](O[C@@H]3O[C@@H](C)[C@H](O[C@@H]4OC[C@@H](O)[C@H](O[C@@H]5O[C@H](CO)[C@@H](O)[C@H](O)[C@H]5O)[C@H]4O)[C@@H](O)[C@H]3O)[C@H](OC(=O)[C@]34CCC(C)(C)C[C@H]3C3=CC[C@@H]5[C@@]6(C)CC[C@H](O[C@@H]7O[C@H](C(=O)O)[C@@H](O)[C@H](O[C@@H]8OC[C@@H](O)[C@H](O)[C@H]8O)[C@H]7O[C@@H]7O[C@H](CO)[C@H](O)[C@H](O)[C@H]7O)[C@@](C)(C=O)[C@@H]6CC[C@@]5(C)[C@]3(C)C[C@H]4O)O[C@@H]2C)O[C@@H]1C [SO1861] | 10% | very comparable to the co-administration | still apparent | comparable high potency | reduces cell viability | zero fluorescent state
